From patent publication US10196386B2, “Compounds having muscarinic receptor antagonist and beta2 adrenergic receptor agonist activity” (priority 2016, dated 2019)

Assays:
Human β2 adrenoceptor = biological target: T1, Human β2 adrenoceptor (Homo sapiens, UniProt P07550); assay: β2 adrenoceptor radioligand binding assay
T1 construct: purchased Perkin Elmer
Summary of the method: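 Human β2 receptor membranes incubated 1 h at room temperature with 0.3 nM [125I]cyanopindolol and compound in pH 7.4 HEPES buffer (0.5% DMSO); 2 μM s-propranolol defined non-specific binding. Bound label counted after filtration; IC50 from competition curves, converted to Ki via Cheng–Prusoff.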

Human M3 receptor = biological target: T2, Human M3 receptor (Homo sapiens, UniProt P20309); assay: biochemical; assay type: binding; settings: read-out: M3 Range
T2 construct: purchased Perkin Elmer
T2 sequence (P20309 whole entry): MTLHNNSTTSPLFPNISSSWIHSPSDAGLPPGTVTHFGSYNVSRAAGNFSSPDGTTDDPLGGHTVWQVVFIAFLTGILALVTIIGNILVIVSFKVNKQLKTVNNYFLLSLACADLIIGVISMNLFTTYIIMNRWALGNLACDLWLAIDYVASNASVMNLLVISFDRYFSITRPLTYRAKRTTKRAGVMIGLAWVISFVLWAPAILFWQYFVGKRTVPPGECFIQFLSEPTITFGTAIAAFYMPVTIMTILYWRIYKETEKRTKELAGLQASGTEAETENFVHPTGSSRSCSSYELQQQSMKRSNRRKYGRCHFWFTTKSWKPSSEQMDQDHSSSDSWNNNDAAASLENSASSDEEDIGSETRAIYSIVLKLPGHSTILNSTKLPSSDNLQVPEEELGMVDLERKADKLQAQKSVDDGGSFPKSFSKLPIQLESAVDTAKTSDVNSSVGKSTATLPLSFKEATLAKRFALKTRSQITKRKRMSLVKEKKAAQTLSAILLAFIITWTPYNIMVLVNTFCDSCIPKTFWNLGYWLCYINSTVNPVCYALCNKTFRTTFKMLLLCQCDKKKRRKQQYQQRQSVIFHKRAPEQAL

T1 sequence (P07550 whole entry): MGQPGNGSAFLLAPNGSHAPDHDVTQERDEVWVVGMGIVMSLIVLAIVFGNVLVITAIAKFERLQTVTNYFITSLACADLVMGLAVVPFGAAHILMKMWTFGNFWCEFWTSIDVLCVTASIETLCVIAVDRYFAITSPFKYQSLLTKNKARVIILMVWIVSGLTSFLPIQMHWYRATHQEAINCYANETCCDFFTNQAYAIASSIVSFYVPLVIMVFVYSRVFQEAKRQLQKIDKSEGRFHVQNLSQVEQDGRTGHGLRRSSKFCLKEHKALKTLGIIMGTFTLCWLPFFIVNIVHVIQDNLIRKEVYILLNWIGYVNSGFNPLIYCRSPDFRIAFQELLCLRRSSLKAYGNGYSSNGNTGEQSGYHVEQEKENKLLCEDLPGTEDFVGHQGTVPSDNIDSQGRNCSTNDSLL

Row | Structure (SMILES) | IC50 (Human β2 adrenoceptor) [nM] | IC50 (Human M3 receptor) [nM]
1 | O=C(c1ccc(-c2cccc([C@](O)(C(=O)OCC3CCN(Cc4ccccc4)CC3)c3ccccc3)c2)nc1)N1CCC(CNC[C@H](O)c2ccc(O)c3[nH]c(=O)ccc23)CC1 [Compound 6D, (1-Benzylpiperidin-4-yl)methyl (S)-2-hydroxy-2-(3-(5-(4-((((R)-2-hydroxy-2-(8-hydroxy-2-oxo-1,2-dihydroquinolin-5-yl)ethyl)amino)methyl)piperidine-1-carbonyl)pyridin-2-yl)phenyl)-2-phenylacetate] | < 0.3 | 0.3 to 3
2 | O=C(c1cncc(-c2cccc([C@](O)(C(=O)OCC3CCN(Cc4ccccc4)CC3)c3ccccc3)c2)c1)N1CCC(CNC[C@H](O)c2ccc(O)c3[nH]c(=O)ccc23)CC1 [Compound 6E, (1-Benzylpiperidin-4-yl)methyl (S)-2-hydroxy-2-(3-(5-(4-((((R)-2-hydroxy-2-(8-hydroxy-2-oxo-1,2-dihydroquinolin-5-yl)ethyl)amino)methyl)piperidine-1-carbonyl)pyridin-3-yl)phenyl)-2-phenylacetate] | < 0.3 | 0.3 to 3
3 | O=C(c1cccc(-c2cccc([C@](O)(C(=O)OCC3CCN(Cc4ccccc4)CC3)c3ccccc3)c2)n1)N1CCC(CNC[C@H](O)c2ccc(O)c3[nH]c(=O)ccc23)CC1 [Compound 6F, (1-Benzylpiperidin-4-yl)methyl (S)-2-hydroxy-2-(3-(6-(4-((((R)-2-hydroxy-2-(8-hydroxy-2-oxo-1,2-dihydroquinolin-5-yl)ethyl)amino)methyl)piperidine-1-carbonyl)pyridin-2-yl)phenyl)-2-phenylacetate] | 0.3 to 3 | 0.3 to 3
4 | O=C(c1ccc(CNC[C@H](O)c2ccc(O)c3[nH]c(=O)ccc23)cc1)N1CCC(c2cccc([C@](O)(C(=O)OCC3CCN(Cc4ccccc4)CC3)c3ccccc3)c2)CC1 [Compound 7, (1-Benzylpiperidin-4-yl)methyl (S)-2-hydroxy-2-(3-(1-(4-((((R)-2-hydroxy-2-(8-hydroxy-2-oxo-1,2-dihydroquinolin-5-yl)ethyl)amino)methyl)benzoyl)piperidin-4-yl)phenyl)-2-phenylacetate] | 0.3 to 3 | 0.3 to 3
5 | COc1cc(C(=O)N2CCC(c3cccc([C@](O)(C(=O)OCC4CCN(Cc5ccccc5)CC4)c4ccccc4)c3)CC2)ccc1CNC[C@H](O)c1ccc(O)c2[nH]c(=O)ccc12 [Compound 7A, (1-Benzylpiperidin-4-yl)methyl (S)-2-hydroxy-2-(3-(1-(4-((((R)-2-hydroxy-2-(8-hydroxy-2-oxo-1,2-dihydroquinolin-5-yl)ethyl)amino)methyl)-3-methoxybenzoyl)piperidin-4-yl)phenyl)-2-phenylacetate] | 0.3 to 3 | 0.3 to 3
6 | COc1cc(CNC[C@H](O)c2ccc(O)c3[nH]c(=O)ccc23)ccc1C(=O)N1CCC(c2cccc([C@](O)(C(=O)OCC3CCN(Cc4ccccc4)CC3)c3ccccc3)c2)CC1 [Compound 7B, (1-Benzylpiperidin-4-yl)methyl (S)-2-hydroxy-2-(3-(1-(4-((((R)-2-hydroxy-2-(8-hydroxy-2-oxo-1,2-dihydroquinolin-5-yl)ethyl)amino)methyl)-2-methoxybenzoyl)piperidin-4-yl)phenyl)-2-phenylacetate] | > 3 | 0.3 to 3
7 | O=C(c1ccc(CCNC[C@H](O)c2ccc(O)c3[nH]c(=O)ccc23)cc1)N1CCC(c2cccc([C@](O)(C(=O)OCC3CCN(Cc4ccccc4)CC3)c3ccccc3)c2)CC1 [Compound 7C, (1-Benzylpiperidin-4-yl)methyl (S)-2-hydroxy-2-(3-(1-(4-(2-(((R)-2-hydroxy-2-(8-hydroxy-2-oxo-1,2-dihydroquinolin-5-yl)ethyl)amino)ethyl)benzoyl)piperidin-4-yl)phenyl)-2-phenylacetate] | < 0.3 | 0.3 to 3
8 | O=C(c1ccc2c(c1)CC(NC[C@H](O)c1ccc(O)c3[nH]c(=O)ccc13)C2)N1CCC(c2cccc([C@](O)(C(=O)OCC3CCN(Cc4ccccc4)CC3)c3ccccc3)c2)CC1 (stereo partly drawn) [Compound 7D, (1-Benzylpiperidin-4-yl)methyl (2S)-2-hydroxy-2-(3-(1-(2-(((R)-2-hydroxy-2-(8-hydroxy-2-oxo-1,2-dihydroquinolin-5-yl)ethyl)amino)-2,3-dihydro-1H-indene-5-carbonyl)piperidin-4-yl)phenyl)-2-phenylacetate] | 0.3 to 3 | < 0.3
9 | O=C(NCC(=O)N1CC=C(c2cccc([C@](O)(C(=O)OCC3CCN(Cc4ccccc4)CC3)c3ccccc3)c2)CC1)c1ccc(CCNC[C@H](O)c2ccc(O)c3[nH]c(=O)ccc23)cc1 [Compound 8, (1-Benzylpiperidin-4-yl)methyl (S)-2-hydroxy-2-(3-(1-((4-(2-(((R)-2-hydroxy-2-(8-hydroxy-2-oxo-1,2-dihydroquinolin-5-yl)ethyl)amino)ethyl)benzoyl)-glycyl)-1,2,3,6-tetrahydropyridin-4-yl)phenyl)-2-phenylacetate] | < 0.3 | < 0.3
10 | COc1cc(CNC[C@H](O)c2ccc(O)c3[nH]c(=O)ccc23)ccc1C(=O)NCC(=O)N1CC=C(c2cccc([C@](O)(C(=O)OCC3CCN(Cc4ccccc4)CC3)c3ccccc3)c2)CC1 [Compound 8A, (1-Benzylpiperidin-4-yl)methyl (S)-2-hydroxy-2-(3-(1-((4-((((R)-2-hydroxy-2-(8-hydroxy-2-oxo-1,2-dihydroquinolin-5-yl)ethyl)amino)methyl)-2-methoxybenzoyl)glycyl)-1,2,3,6-tetrahydropyridin-4-yl)phenyl)-2-phenylacetate] | < 0.3 | 0.3 to 3
11 | C[C@@H](NC(=O)c1ccc(CNC[C@H](O)c2ccc(O)c3[nH]c(=O)ccc23)cc1)C(=O)N1CC=C(c2cccc([C@](O)(C(=O)OCC3CCN(Cc4ccccc4)CC3)c3ccccc3)c2)CC1 [Compound 8B, (1-Benzylpiperidin-4-yl)methyl (S)-2-hydroxy-2-(3-(1-((4-((((R)-2-hydroxy-2-(8-hydroxy-2-oxo-1,2-dihydroquinolin-5-yl)ethyl)amino)methyl)benzoyl)-D-alanyl)-1,2,3,6-tetrahydropyridin-4-yl)phenyl)-2-phenylacetate] | 0.3 to 3 | 0.3 to 3
12 | C[C@H](NC(=O)c1ccc(CNC[C@H](O)c2ccc(O)c3[nH]c(=O)ccc23)cc1)C(=O)N1CC=C(c2cccc([C@](O)(C(=O)OCC3CCN(Cc4ccccc4)CC3)c3ccccc3)c2)CC1 [Compound 8C, (1-Benzylpiperidin-4-yl)methyl (S)-2-hydroxy-2-(3-(1-((4-((((R)-2-hydroxy-2-(8-hydroxy-2-oxo-1,2-dihydroquinolin-5-yl)ethyl)amino)methyl)benzoyl)-L-alanyl)-1,2,3,6-tetrahydropyridin-4-yl)phenyl)-2-phenylacetate] | 0.3 to 3 | 0.3 to 3
13 | O=C(NCC(=O)N1CC=C(c2cccc([C@](O)(C(=O)OCC3CCN(Cc4ccccc4)CC3)c3ccccc3)c2)CC1)c1ccc(CNC[C@H](O)c2ccc(O)c3[nH]c(=O)ccc23)cc1 [Compound 8D, (1-Benzylpiperidin-4-yl)methyl (S)-2-hydroxy-2-(3-(1-((4-((((R)-2-hydroxy-2-(8-hydroxy-2-oxo-1,2-dihydroquinolin-5-yl)ethyl)amino)methyl)-benzoyl)glycyl)-1,2,3,6-tetrahydropyridin-4-yl)phenyl)-2-phenylacetate] | < 0.3 | 0.3 to 3
14 | COc1cc(C(=O)NCC(=O)N2CC=C(c3cccc([C@](O)(C(=O)OCC4CCN(Cc5ccccc5)CC4)c4ccccc4)c3)CC2)ccc1CNC[C@H](O)c1ccc(O)c2[nH]c(=O)ccc12 [Compound 8E, (1-Benzylpiperidin-4-yl)methyl (S)-2-hydroxy-2-(3-(1-((4-((((R)-2-hydroxy-2-(8-hydroxy-2-oxo-1,2-dihydroquinolin-5-yl)ethyl)amino)methyl)-3-methoxybenzoyl)glycyl)-1,2,3,6-tetrahydropyridin-4-yl)phenyl)-2-phenylacetate] | < 0.3 | 0.3 to 3
15 | CN(CC(=O)N1CC=C(c2cccc([C@](O)(C(=O)OCC3CCN(Cc4ccccc4)CC3)c3ccccc3)c2)CC1)C(=O)c1ccc(CNC[C@H](O)c2ccc(O)c3[nH]c(=O)ccc23)cc1 [Compound 8F, (1-Benzylpiperidin-4-yl)methyl (S)-2-hydroxy-2-(3-(1-(N-(4-((((R)-2-hydroxy-2-(8-hydroxy-2-oxo-1,2-dihydroquinolin-5-yl)ethyl)amino)-methyl)benzoyl)-N-methylglycyl)-1,2,3,6-tetrahydropyridin-4-yl)phenyl)-2-phenylacetate] | 0.3 to 3 | 0.3 to 3
16 | O=C(NCCCNC[C@H](O)c1ccc(O)c2[nH]c(=O)ccc12)c1cncc(-c2cccc([C@](O)(C(=O)OCC3CCN(Cc4ccccc4)CC3)c3ccccc3)c2)n1 [Compound 10, (1-Benzylpiperidin-4-yl)methyl (S)-2-hydroxy-2-(3-(6-((3-(((R)-2-hydroxy-2-(8-hydroxy-2-oxo-1,2-dihydroquinolin-5-yl)ethyl)amino)propyl)carbamoyl)pyrazin-2-yl)phenyl)-2-phenylacetate] | 0.3 to 3 | 0.3 to 3
17 | COc1cc(C(=O)NCc2ccc(-c3cccc([C@](O)(C(=O)OCC4(C)CCN(Cc5ccccc5)CC4)c4ccccc4)c3)s2)c(Cl)cc1CNC[C@H](O)c1ccc(O)c2[nH]c(=O)ccc12 [Compound 11, (1-Benzyl-4-methylpiperidin-4-yl)methyl (S)-2-(3-(5-((2-chloro-4-((((R)-2-hydroxy-2-(8-hydroxy-2-oxo-1,2-dihydroquinolin-5-yl)ethyl)amino)methyl)-5-methoxybenzamido)methyl)thiophen-2-yl)phenyl)-2-hydroxy-2-phenylacetate] | < 0.3 | 0.3 to 3
18 | O=C1c2ccc(CNC[C@H](O)c3ccc(O)c4[nH]c(=O)ccc34)cc2C(=O)N1Cc1ccc(-c2cccc([C@](O)(C(=O)OCC3CCN(Cc4ccccc4)CC3)c3ccccc3)c2)s1 [Compound 12, (1-Benzylpiperidin-4-yl)methyl (S)-2-hydroxy-2-(3-(5-((5-((((R)-2-hydroxy-2-(8-hydroxy-2-oxo-1,2-dihydroquinolin-5-yl)ethyl)amino)methyl)-1,3-dioxoisoindolin-2-yl)methyl)thiophen-2-yl)phenyl)-2-phenylacetate] | 0.3 to 3 | 0.3 to 3
